The text below walks through data of patent publication US20160120882A1, “COMPOSITION HAVING A BENEFICIAL EFFECT ON THE CARDIOVASCULAR SYSTEM” (ESSENTIAL IP BV, priority 2013, published 2016).

For data set [1], the system named is human monocytic THP-1 cells. Kind of data set: uptake of fluorescently labeled oxLDL by PMA-stimulated THP-1 macrophages (foam cell formation model), FACS. To be noted: for effect on the uptake of oxLDL: PMA-stimulated THP-1 cells, FIG. 1; for oxLDL uptake, Average: average of 6 independent measurements; for oxLDL uptake, Average / oxLDL uptake [Median Fluorescence intensity]: VitD3 100 nM, lycopene 0.5 uM, monacolin K 10 uM, control average 12617; for oxLDL uptake [Median Fluorescence intensity]: single measurement (1-6), 24 h pre-treatment, then 10 ug/ml Dil-oxLDL 24 h. It is filed as cell-based. The text has this: We employed a model for measuring the oxLDL uptake by macrophages, a known and accepted model for determining foam cell formation, which in turn is an accepted measure for plaque formation as well as for the development of atherosclerosis and decreasing vascular health in general. Our experimental data are therefore relevant for determining the beneficial effects of several active ingredients on the cardiovascular system.
More in detail, we stimulated human monocytic THP-1 cells [Tsuchiya S, Yamabe M, Yamaguchi Y, Kobayashi Y, Konno T, Tada K (August 1980). “Establishment and characterization of a human acute monocytic leukemia cell line (THP-1)”. Int. J. Cancer 26 (2): 171-6. doi:10.1002/ijc.2910260208.] with phorbol 12-myristate 13-acetate (PMA) and contacted or pre-treated the cells with a number of active ingredients. After 24 hours of pre-treatment, the cells were contacted with or exposed to fluorescently labeled oxLDL and uptake of oxLDL was determined after 24 hours (see example 1).
THP-1 cells (P7) were plated in a 96-wells suspension culture plate at a density of 1*10̂6 cells/ml whereby 1*10̂5 cells were plated. Cells were cultured in IMDM phenol-red free medium (Invitrogen, Eugene, Oreg., USA) enriched for 10% fetal calf serum (FCS), 100 U/ml penicillin, 100 μg/ml streptomycin and 2 mM L-glutamin. Monocytes were differentiated with 50 ng/ml phorbol 12-myristate 13-acetate (PMA) (Sigma Aldrich, St. Louis, Mo. USA) for 48 h where after medium was replaced. After differentiation, macrophages were cultured in the presence or absence of different compounds for 24h (Table 2). After pre-treatment, cells were exposed to 10 ug/ml Dil-labeled oxidized lipoprotein (oxLDL) (Biotrend Chemikalien GmbH, Cologne, Germany) for another 24h at 37° C. to enable foam cell formation in the absence of presence of the different compounds (FIG. 1). After this, cells were washed with PBS (−/−) (PAA, Pitscataway, N.J., USA) and detached by Lidocaine hydrochloride (4 mg/ml) EDTA (10 mM) solution (Sigma Aldrich, St. Louis, Mo. USA)/(Invitrogen, Eugene, Oreg., USA). Cells were washed two more times with FACS buffer (PBS containing 0.5% BSA and 0.2 mM EDTA) and transferred to a 96 U-shaped plate for FACS analysis. Analysis was performed on the FACS Canto II HTS and 1,1′-dioctadecyl-3,3,3′3′-tetra-methylindocyanide percholorate (Dip-labeled oxLDL uptake was measured in PE-A channel.
Macrophages were exposed to vitamin D3, lycopene and/or monacolin K and the inhibitory effect of oxLDL uptake of these three active ingredients was measured. The inhibitory potentiol of each compound and composition was expressed as the difference between the measurements obtained with and without the compound or composition.

The conditions of data set [2]: cited from earlier work.
For data set [3] the following is noted: cited from earlier work. This is another data set of the same source.
For data set [4] the following is noted: lycopene group versus 30% in control group; cited from earlier work.
For data set [5] the following is noted: lycopene from all sources (EFSA, 2008); cited from earlier work.
The conditions of data set [6]: subjects with high blood pressure; cited from earlier work.
For data set [7] the following is noted: various clinical trial data; cited from earlier work.
For data set [8] the following is noted: calculated from the NOAEL in rats; cited from earlier work.
The conditions of data set [9]: clinical studies; cited from earlier work.
For data set [10] the following is noted: cited from earlier work. This is another data set of the same source.
For data set [11] the following is noted: cyclosporine 3 mg/kg twice daily; berberine 0.2 g three times a day for three months; cited from earlier work.
The target in data set [12] is T1, CYP1A1 (Homo sapiens, UniProt P04798).
T1 sequence (P04798 1-512): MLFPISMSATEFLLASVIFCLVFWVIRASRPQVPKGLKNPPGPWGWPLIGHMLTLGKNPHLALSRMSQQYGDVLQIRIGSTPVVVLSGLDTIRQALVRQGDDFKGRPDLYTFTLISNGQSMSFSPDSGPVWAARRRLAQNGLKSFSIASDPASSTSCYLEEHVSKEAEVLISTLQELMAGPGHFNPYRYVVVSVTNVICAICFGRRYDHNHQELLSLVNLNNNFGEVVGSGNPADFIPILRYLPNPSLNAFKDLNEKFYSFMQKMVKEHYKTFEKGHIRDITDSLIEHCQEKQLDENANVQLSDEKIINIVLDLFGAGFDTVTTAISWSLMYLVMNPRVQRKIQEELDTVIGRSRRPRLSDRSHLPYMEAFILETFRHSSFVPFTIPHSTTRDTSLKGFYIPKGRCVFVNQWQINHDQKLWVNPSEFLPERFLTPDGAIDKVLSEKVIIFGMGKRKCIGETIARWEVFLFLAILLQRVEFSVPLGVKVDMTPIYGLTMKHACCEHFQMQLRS
To be noted: in vitro; cited from earlier work.

For data set [13] the following is noted: mouse, in vivo; cited from earlier work.
For data set [14] the following is noted: rat, in vivo; cited from earlier work.
For data set [15] the following is noted: high versus low dietary intake of vitamin K2; cited from earlier work.
For data set [16] the following is noted: per increase in dietary intake of vitamin K2 by 10 microgram; 8 years, 480 cardiovascular events; cited from earlier work.
The conditions of data set [17]: daily intake of Red Yeast Rice containing 10 mg monacolin K; cited from earlier work.
The mark [18] stands for this setting: subgroup of trials using lycopene dosages of >=25 mg daily.

SMILES strings stand for the structures. Values joined by “and” are separate entries in the source; they are usually repeats but may differ in a detail not shown here. Equal values may be shown once. Where a name gives a salt, the structure may show the parent alone. Read-outs that look alike come from different tables or passages of the source.

As for `C=C1CC[C@H](O)C/C1=C/C=C1\CCC[C@]2(C)[C@@H]([C@H](C)CCCC(C)C)CC[C@@H]12` [VitD3, Vitamin D3], in data set [1], the “effect on the uptake of oxLDL” value is “no effect”; the “oxLDL uptake, Average” value is 12300 Median Fluorescence intensity; the “oxLDL uptake [Median Fluorescence intensity]” value is 13100 Median Fluorescence intensity and 13200 Median Fluorescence intensity and 12600 Median Fluorescence intensity and 10900 Median Fluorescence intensity.
For `CC(C)=CCC/C(C)=C/C=C/C(C)=C/C=C/C(C)=C/C=C/C=C(C)/C=C/C=C(C)/C=C/C=C(\C)CCC=C(C)C` [Lycopene], in data set [1], the “effect on the uptake of oxLDL” value is on record as “slightly inhibited”; the “oxLDL uptake, Average” value was 11405 Median Fluorescence intensity; the “oxLDL uptake [Median Fluorescence intensity]” value was 9832 Median Fluorescence intensity and 11500 Median Fluorescence intensity and 12200 Median Fluorescence intensity and 11900 Median Fluorescence intensity and 11300 Median Fluorescence intensity and 11700 Median Fluorescence intensity. The HDL levels entry in data set [2] (meta-analysis of 12 studies) was “remained unchanged”. Further, in [2] (setting [18]), the LDL cholesterol lowering result is “LDL cholesterol lowering of 10%” and the “total serum cholesterol lowering” value was 10%. Also, the LDL cholesterol lowering in data set [2] (subgroup of trials using lycopene dosages of >=25 mg daily, listed as lycopene) was 10%. Moreover, the “Systolic blood pressure lowering” value in data set [3] (Table 1 summary range) was 5.6-9.5 mmHg. Further, the “systolic blood pressure reducing effect” value in [3] (meta-analysis of 4 studies) was 5.60 mmHg. Also, the “systolic blood pressure reduction” value in [3] (subgroup of trials with high blood pressure at baseline (SBP >=140 mm Hg)) is listed as 9.35 mmHg. Besides, the “incidence of prostate cancer” value in [4] is 10%. Besides, the “acceptable daily intake (ADI)” value in data set [5] was 0.5 mg/kg/day.
In the case of `COC1=C(OC)C(=O)C(C/C=C(\C)CC/C=C(\C)CC/C=C(\C)CC/C=C(\C)CC/C=C(\C)CC/C=C(\C)CC/C=C(\C)CC/C=C(\C)CC/C=C(\C)CCC=C(C)C)=C(C)C1=O` [CoQ10, Coenzyme Q10], in [6], the “mean decrease in diastolic blood pressure” value is recorded as 7-10 mmHg and the “mean decrease in systolic blood pressure” value was 11-17 mmHg. Moreover, the “observed safety level (OSL)” value in [7] is on record as 1200 mg/day/person. In addition, the “acceptable daily intake (ADI)” value in [8] is on record as 12 mg/kg/day.
On to `COc1ccc2cc3[n+](cc2c1OC)CCc1cc2c(cc1-3)OCO2` [Berberine], for which, in [9], the “reduction of total cholesterol” value was 15-18%. In addition, in data set [10] (P<0.001), the “reduction of fasting plasma insulin” value is given as 28.1% and the “reduction of insulin resistance index” value is 44.7%. The HBA1c after treatment in data set [10] (decreased from 8.1%) is listed as 7.3%. Besides, the “increase of mean cyclosporine A Area under the Curve (AUC)” value in data set [11] is 34.5%. Further, in [12], the “effect on CYP1A1” value is “inhibit CYP1A1”.
`COc1ccc2cc3[n+](cc2c1OC)CCc1cc2c(cc1-3)OCO2` [berberine HCL]: the LD50 is greater than 29586 mg/kg in data set [13] and greater than 15000 mg/kg in data set [14].
As to `CC(C)=CCC/C(C)=C/CC/C(C)=C/CC/C(C)=C/CC1=C(C)C(=O)c2ccccc2C1=O` [vitamin K2, Vitamin K2], in data set [15], the “less calcification of the aorta” value was 52%, the less myocardial infarctions was 57% and the less overall mortality is 26%. Moreover, in [16], the risk reduction was 9%.
Consider `CC[C@H](C)C(=O)O[C@H]1C[C@@H](C)C=C2C=C[C@H](C)[C@H](CC[C@@H]3C[C@@H](O)CC(=O)O3)[C@H]21` [Monacolin K], for which, in data set [1], the “effect on the uptake of oxLDL” value is listed as “no effect”; the “oxLDL uptake, Average” value is given as 12667 Median Fluorescence intensity; the “oxLDL uptake [Median Fluorescence intensity]” value is 14300 Median Fluorescence intensity and 11900 Median Fluorescence intensity and 11700 Median Fluorescence intensity and 11800 Median Fluorescence intensity and 14400 Median Fluorescence intensity. For the same molecule, in data set [17], the LDL cholesterol lowering result is on record as “LDL cholesterol lowering of 7-25%”, the “lowering of triglyceride blood levels” value is “by 10-44%” and the “relative increase of HDL” value is given as “Relative increase of HDL up to 17%”.

In general, LD50 refers to the dose expected to kill half of the subjects tested.
